Data reported in the Biogen ADME set (Fang et al. 2023).
≈ marks a conversion by molar mass, not a printed value.

Details: for aqueous solubility: pH 6.8

Compound | MDR1-MDCK efflux ratio | intrinsic clearance, human liver microsomes [mL/min/kg] | intrinsic clearance, rat liver microsomes [mL/min/kg] | aqueous solubility [µg/mL] | fraction unbound, human plasma | fraction unbound, rat plasma
OC1CCN(c2ncc(-c3cnccn3)c(-c3cccs3)n2)CC1 | 1.14 | 7.01 | ≤ 10.7 | 47.9 (≈ 141 µM) | – | –
Cc1cc(N2CCCC2)nc(C2CCCN(C)C2)n1 (stereo not drawn) | – | 9.21 | 331 | – | 1 | 0.727
NC(=O)C1(Cc2ccc(-c3cccnc3)cc2)CCN(Cc2cccc(Cl)c2)CC1 | 4.87 | 183 | 1360 | 83.8 (≈ 199 µM) | – | –
C#Cc1cccc(N(CCC(=O)NC(N)=O)Cc2cccs2)c1 | 1.88 | 51.4 | 1070 | – | – | –
CN(Cc1ccccc1N1CCCC1)C(=O)c1cccc(Cn2ccnc2)c1 | 21.7 | 392 | 1520 | 61.6 (≈ 164 µM) | – | –
CC(C)(C)C(=O)Nc1sc2c(c1C#N)CCC2 | – | – | – | 1.91 (≈ 7.69 µM) | – | –
Cc1nc(C)c(C(=O)NCc2ncoc2C)s1 | – | ≤ 4.74 | ≤ 10.7 | – | – | –
Cc1cn[nH]c1C1(C)CCN(Cc2cnn(C)c2)CC1 | 22.6 | ≤ 4.74 | 79.1 | 28.4 (≈ 104 µM) | – | –
Brc1cnc2ccccc2c1 | – | – | – | 0.925 (≈ 4.45 µM) | – | –
O=C(CN1C(=O)CCC1=O)Nc1ccc(F)c(F)c1F | – | – | – | 50 (≈ 175 µM) | – | –
CCC(=O)Nc1cccc(C(=O)N2CCN(C)Cc3ccccc32)c1 | 41.5 | – | – | 0.2 (≈ 0.593 µM) | – | –
CN(Cc1nnc(C2CC2)n1C)C(=O)C1C2CC3CC(C2)CC1C3 (stereo not drawn) | 11.1 | 47.8 | 951 | 46.4 (≈ 141 µM) | – | –
Nc1nc(-c2ccccc2)c(C(=O)Nc2ccc(Cl)c(Cl)c2)s1 | 0.643 | – | – | 0.5 (≈ 1.37 µM) | – | –
O=C(c1ccc2c(c1)OCO2)N1CCC(c2n[nH]c(C3CC3)n2)CC1 | 62.7 | ≤ 4.74 | 44.6 | 27 (≈ 79.4 µM) | – | –
O=C1Nc2ccccc2O[C@H]2C[C@@H]1N(CC1CC1)C2 | 0.851 | 14.5 | 377 | 42.1 (≈ 163 µM) | – | –
Cc1cccc(N(C)Cc2cnc(N(C)C)nc2)n1 | 0.769 | 57.7 | 1770 | – | – | –
O=C(NC1CCNCC1)c1ccc2cn[nH]c2c1 | – | 16.1 | – | – | 1 | 0.511
N#Cc1cccc(CN2CCOC[C@H](O)C2)c1 | – | 7.9 | 12 | 21.1 (≈ 90.9 µM) | – | –
CC(C)CN(c1ncnc2c1cnn2C)C1CC1 | 0.731 | 50.5 | 345 | 29.6 (≈ 121 µM) | – | –
Cc1nn(C)c(C)c1C(=O)NCc1ccccc1 | 0.786 | ≤ 4.74 | ≤ 10.7 | 54.7 (≈ 225 µM) | – | –
N#CCCN(c1ncnc2sccc12)C1CC1 | 0.714 | 11 | 231 | 39.8 (≈ 163 µM) | – | –

Compound | MDR1-MDCK efflux ratio | intrinsic clearance, human liver microsomes [mL/min/kg] | intrinsic clearance, rat liver microsomes [mL/min/kg] | aqueous solubility [µg/mL] | fraction unbound, human plasma | fraction unbound, rat plasma
CCOc1cc(N(C)CC2CCN(C)CC2)ncn1 | 1.55 | 20.1 | 561 | – | – | –
O=C(NC1CCN(c2ccc(OC(F)(F)F)cc2)CC1)N1CCC1 | 0.716 | ≤ 4.74 | 26.4 | 57 (≈ 166 µM) | – | –
Cc1cc(NC(=O)N2Cc3cc4c(cc3C3(CCCC3)C2)OCCO4)no1 | 0.72 | – | – | 0.3 (≈ 0.812 µM) | – | –
O=C(Cn1cc(NCc2cccc(Cl)c2)cn1)N1CCOCC1 | 4.24 | 5.9 | 71.9 | – | – | –
CC(C)(C)NC(=O)Cn1nc(C(c2ccccc2)c2ccccc2)oc1=O | 4.07 | 22.4 | 747 | 6.02 (≈ 16.5 µM) | – | –
Cc1cc(C)nc(Nc2ccc(C3CCCN(CC(=O)N4CCCC4)C3)nc2)n1 (stereo not drawn) | 41.3 | 8.28 | 118 | 66.6 (≈ 169 µM) | – | –
N#Cc1ccccc1NC(=O)CCc1ccccc1 | 0.552 | 16 | 456 | – | – | –
CC(C)(C)OC(=O)NCc1ccc(C(=N)NC(=O)OCc2ccccc2)cc1 | 2.23 | 84.3 | 1300 | 2.59 (≈ 6.75 µM) | – | –
O=C(Nc1ccc(F)cc1)[C@H](O)c1ccccc1 | – | – | – | 42.9 (≈ 175 µM) | – | –
O=C(CCc1cccs1)Nc1ccc(N2CCOCC2)cn1 | 0.618 | 21.6 | 49.2 | 32.2 (≈ 101 µM) | – | –
O[C@@H]1CCCC[C@H]1N1CCC(c2ccccc2)CC1 | 0.462 | ≤ 4.74 | 1390 | 46.5 (≈ 179 µM) | – | –
CN(C)S(=O)(=O)CCCN1CCC(CCC(N)=O)CC1 | 0.425 | ≤ 4.74 | ≤ 10.7 | – | – | –
CN1CCN(c2ccc(NC(=O)c3ccc(S(=O)(=O)N4CCCc5ccccc54)cc3)cc2)CC1 | 8.78 | 526 | 727 | 10.1 (≈ 20.6 µM) | – | –
CN(Cc1ccc(CO)cc1)Cc1cc(F)c(F)c(F)c1 | 0.425 | 54 | 371 | – | – | –
NS(=O)(=O)C#Cc1ccccc1 | – | 10.6 | ≤ 10.7 | – | – | –
Nc1ccc(Cl)c(NC2=NN(c3c(Cl)cc(Cl)cc3Cl)C(=O)C2)c1 | – | 92.5 | 702 | 14.1 (≈ 34.8 µM) | – | –
Cc1nccc(-c2cn(Cc3ccccc3)c3cnccc23)n1 | 0.675 | 51.4 | 2130 | 33.7 (≈ 112 µM) | 0.133 | 0.161
N#Cc1ccc(C(=O)N2CCCO2)nc1 | 0.487 | 37.6 | 1020 | – | – | –
CCCn1cc(CNc2ncccn2)cn1 | – | ≤ 4.74 | 56.5 | – | – | –
C#CCN1CCC[C@H]1C(=O)Nc1cnn(-c2ncccn2)c1 | 3.95 | ≤ 4.74 | 83.4 | 45.1 (≈ 152 µM) | – | –
Cc1cc(C(=O)NCC2CCC3(CC2)OCCO3)[nH]n1 | 4.03 | ≤ 4.74 | 99.2 | – | – | –

More lines, now with the values ahead:

MDR1-MDCK efflux ratio | intrinsic clearance, human liver microsomes [mL/min/kg] | intrinsic clearance, rat liver microsomes [mL/min/kg] | aqueous solubility [µg/mL] | fraction unbound, human plasma | fraction unbound, rat plasma | Compound
– | 8.46 | 72.9 | – | – | – | COc1c(C)cnc(Cn2cnc3c(Cl)nc(N)nc32)c1C
0.149 | 82.2 | 127 | 5.16 (≈ 15.5 µM) | – | – | O=C(Nc1nc(-c2ccccn2)cs1)c1ccc(F)cc1Cl
14.2 | 63 | 2210 | 48.8 (≈ 167 µM) | – | – | CCN(C(=O)c1cc(NC(C)=O)ccc1F)C1CCCC1
52 | 198 | 734 | – | – | – | Cc1cc(C(F)(F)F)nc(CCNC(=O)N(C)Cc2ccncc2C)n1
– | 29 | 173 | – | – | – | Cc1c(C(=O)NCCc2cc3nc(-c4ccco4)ccn3n2)cnn1C
0.979 | 63.8 | 1090 | 74.3 (≈ 220 µM) | – | – | COc1ccc(CCNCc2ccc(-c3ccccc3)o2)cc1OC
30.1 | ≤ 4.74 | 82.1 | – | – | – | COc1cccc(C(=O)N(C)CC(F)(F)F)c1OCCCN
0.743 | 8.73 | 28.1 | 50.2 (≈ 220 µM) | – | – | CCCC(=O)Nc1ccc(C)c2ncccc12
2.22 | ≤ 4.74 | 53.8 | 52.5 (≈ 189 µM) | – | – | COc1ccc(C(=O)N(C)Cc2nccn2C)c(F)c1
1.59 | ≤ 4.74 | ≤ 10.7 | 31.5 (≈ 127 µM) | – | – | CCCn1nccc1NC(=O)c1c(C)noc1C
– | 40.7 | 102 | 43 (≈ 157 µM) | – | – | CCc1cc2c(Nc3cnn(CC)c3)ncnc2s1
1.02 | 11.6 | ≤ 10.7 | 46.6 (≈ 139 µM) | – | – | CCN1CCc2nc(NC(=O)Cc3ccc(Cl)cc3)sc2C1
0.557 | 220 | 1510 | 41.1 (≈ 127 µM) | – | – | COc1ccccc1OC1CCN(Cc2ccccc2C#N)CC1
– | 28.1 | 141 | 1.9 (≈ 3.72 µM) | – | – | CNC(=O)c1ccc(Nc2ncc(C(F)(F)F)c(NCc3nccnc3N(C)S(C)(=O)=O)n2)cc1
6.36 | 10.8 | 397 | – | – | – | COc1ccc(CN2CC(c3ccncc3)C2)cc1Cn1cccn1
– | 30.8 | 166 | – | – | – | CCOC(=O)c1c(C)n(C)c2ccc(O)cc12
– | 346 | 2820 | – | – | – | O=C(Cc1csc(-c2ccc(F)cc2)n1)N1CCC(n2c(=O)[nH]c3ccccc32)CC1
61.7 | 35 | 218 | 53.6 (≈ 148 µM) | – | – | CC[C@@H]1[C@H](F)C(=O)N[C@@H]1COc1nccc2cc(C(N)=O)c(OC)cc12
